These results are taken from ChEMBL document CHEMBL1126639, “Centrally acting serotonergic and dopaminergic agents. 2. Synthesis and structure-activity relationships of 2,3,3a,4,9,9a-hexahydro-1H-benz[f]indole derivatives” (J Med Chem, 1993).

The target of assay [1] is D(2) dopamine receptor (Homo sapiens, UniProt P14416). Kind of assay: Binding affinity against [3H]U-86,170-labeled dopamine receptor D2 in cloned CHO cells. The class given is cell-based.
In assay [2] the target is D(2) dopamine receptor (Rattus norvegicus, UniProt P61169). As to the kind of experiment: Binding affinity for [3H]raclopride-labeled dopamine receptor D2 in rat striatum. It counts as tissue-based.
Assay [3] relates to Mus musculus. Kind of assay: Effective dose on hypothermia in mouse when administered subcutaneously. The class given is functional. To be noted: sc.
The test system of assay [4] is Mus musculus. As to the kind of experiment: Effective dose on hypothermia in mouse when administered through peroral route. It counts as functional. To be noted: Mus musculus, po; read-out: ED50.
The test system of assay [5] is Mus musculus. Kind of assay: Maximum decrease in temperature when compound is administered subcutaneously. The class given is functional.
Assay [6] concerns Mus musculus. Kind of assay: Maximum decrease in temperature when compound is administered through peroral route. It counts as functional.
In assay [7] the test system is Rattus norvegicus. As to the kind of experiment: Effect on the synthesis rates of dopamine (DOPA accumulation) in the rat ventral limbic brain region at 3.7 uM/kg. It counts as functional, Limbic system.
The species entered for assay [8] is Rattus norvegicus. As to the kind of experiment: Effect on the synthesis rates of serotonin (5-HTP accumulation) in the rat ventral limbic brain region […]. It counts as functional, Limbic system.
Assay [9] relates to Mus musculus. Kind of assay: Antagonism of apomorphine for 0-10 minutes in reserpinized mice when a dose of 0.4 micro mol/kg is administered intraperitoneally. It counts as functional.
Assay [10] has as its system Mus musculus. Kind of assay: Antagonism of apomorphine for 0-10 minutes in reserpinized mice when a dose of 3.7 micro mol/kg is administered intraperitoneally. The class given is functional.
Assay [11] deals with Mus musculus. As to the kind of experiment: Antagonism of apomorphine for 0-10 minutes in reserpinized mice when a dose of 37 micro mol/kg is administered intraperitoneally. It counts as functional.
In assay [12] the test system is Mus musculus. Kind of assay: Antagonism of apomorphine for 10-20 minutes in reserpinized mice when a dose of 3.7 micro mol/kg is administered intraperitoneally. The class given is functional.
Assay [13] relates to Mus musculus. Kind of assay: Ability to stimulate dopaminergic systems by effect on locomotor activity in reserpinized mice when a dose of 3.7 micro mol/kg is administered intraperitoneally. It counts as functional.
Assay [14] has as its system Mus musculus. Kind of assay: Ability to stimulate dopaminergic systems by effect on locomotor activity in reserpinized mice when a dose of 37 micro mol/kg is administered intraperitoneally. It counts as functional.
The subject of assay [15] is Mus musculus. Kind of assay: Ability to stimulate dopaminergic systems by effect on locomotor activity in reserpinized mice when a dose of 0.4 micro mol/kg is administered intraperitoneally. It counts as functional.
Assay [16] relates to Mus musculus. As to the kind of experiment: Antagonism of apomorphine in reserpinized mice when a dose of 37 micro mol/kg is administered intraperitoneally. The class given is functional.
Assay [17] relates to Mus musculus. Kind of assay: Antagonism of apomorphine for 10-20 minutes in reserpinized mice when a dose of 37 micro mol/kg is administered intraperitoneally. It counts as functional.
Assay [18] concerns Mus musculus. Kind of assay: Antagonism of apomorphine in reserpinized mice when a dose of 0.4 micro mol/kg is administered intraperitoneally. It counts as functional.
The test system of assay [19] is Mus musculus. As to the kind of experiment: Antagonism of apomorphine in reserpinized mice when a dose of 3.7 micro mol/kg is administered intraperitoneally. It counts as functional.
For assay [20], the system named is Rattus norvegicus. Kind of assay: (§1) Inhibition of firing rates of dopaminergic neurons in the substantia nigra pars compacta by intravenous injection in rats. It counts as functional.
The target of assay [21] is Sodium-dependent dopamine transporter (Rattus norvegicus) (UniProt P23977). Described as §1. The class given is functional, tissue-based.
Assay [22] has the same target. Kind of assay: Inhibition of firing rates of serotonergic neurons in the dorsal raphe nucleus by intravenous injection in rats. The class given is functional, tissue-based.
Assay [23] is filed under the species Mus musculus. As to the kind of experiment: Time of effect in the face-to-face behavioral assay in the mouse […]. It counts as functional.
The subject of assay [24] is Mus musculus. As to the kind of experiment: Time of effect in the face-to-face behavioral assay in the mouse when a dose of 0.3 micro mol/kg is administered subcutaneously. The class given is functional.
Assay [25] concerns Mus musculus. Kind of assay: Time of effect in the face-to-face behavioral assay in the mouse when a dose of 3.0 micro mol/kg is administered subcutaneously. It counts as functional.
Assay [26] concerns Mus musculus. Kind of assay: Time of effect in the face-to-face behavioral assay in the mouse when a dose of 30 micro mol/kg is administered subcutaneously. It counts as functional.
In assay [27] the test system is Mus musculus. As to the kind of experiment: Time of effect in the isolation-induced aggression behavioral assay in the mouse when a dose of 0.9 micro mol/kg is administered intraperitoneally. It counts as functional.
Assay [28] relates to Mus musculus. Kind of assay: Time of effect in the isolation-induced aggression behavioral assay in the mouse when a dose of 3.0 micro mol/kg is administered intraperitoneally. The class given is functional.
Assay [29] deals with Mus musculus. Kind of assay: Time of effect in the isolation-induced aggression behavioral assay in the mouse when a dose of 30 micro mol/kg is administered intraperitoneally. It counts as functional.
Assay [30] relates to Mus musculus. Kind of assay: Time of effect in the isolation-induced aggression behavioral assay in the mouse when a dose of 0.3 micro mol/kg is administered intraperitoneally. It counts as functional.
In assay [31] the test system is Mus musculus. As to the kind of experiment: Time of effect in the isolation-induced aggression behavioral assay in the mouse when a dose of 9.1 micro mol/kg is administered intraperitoneally. The class given is functional.
Assay [32] deals with Rattus norvegicus. As to the kind of experiment: Effect on the synthesis rates of dopamine in the rat ventral limbic brain region at 0.3 micro mol/kg. The class given is functional, Limbic system.
In assay [33] the test system is Rattus norvegicus. As to the kind of experiment: Effect on the synthesis rates of serotonin in the rat ventral limbic brain region 0.3 micro mol/kg. The class given is functional, Limbic system.
Assay [34] concerns Rattus norvegicus. As to the kind of experiment: Effect on the synthesis rates of serotonin in the rat ventral limbic brain region 3.0 micro mol/kg. The class given is functional, Limbic system.
Assay [35] concerns Rattus norvegicus. Kind of assay: Effect on the synthesis rates of dopamine in the rat ventral limbic brain region at 3.0 micro mol/kg. It counts as functional, Limbic system.
For assay [36], the species on record is Felis catus. As to the kind of experiment: Percent of arterial blood pressure at sympathetic nerve activity (SND) dose value was determined. It counts as functional.
The test system of assay [37] is Felis catus. As to the kind of experiment: Maximum decrease of arterial blood pressure at sympathetic nerve activity (SND) in anesthetized cat has been observed following 1 mg/kg dose. The class given is functional. Also on record: scale not given: the % may be the effect or the level left.
In assay [38] the test system is Felis catus. Kind of assay: Maximum decrease of sympathetic nerve activity (SND) in anesthetized cat has been expressed as percent control. The class given is functional. Also on record: scale not given: the % may be the effect or the level left.
For assay [39], the system named is Felis catus. Kind of assay: Effective dose at which the sympathetic nerve activity (SND) has been reduced to 50% of the pretreatment value in anesthetized cat. It counts as functional.
Assay [40] deals with Mus musculus. As to the kind of experiment: Antagonism of apomorphine for 0-10 minutes in reserpinized mice when a dose of 3.8 micro mol/kg is administered intraperitoneally. It counts as functional.
Assay [41] relates to Mus musculus. As to the kind of experiment: Antagonism of apomorphine for 0-10 minutes in reserpinized mice when a dose of 38 micro mol/kg is administered intraperitoneally. The class given is functional.
Assay [42] relates to Mus musculus. Kind of assay: Antagonism of apomorphine for 10-20 minutes in reserpinized mice when a dose of 0.4 micro mol/kg is administered intraperitoneally. It counts as functional.
Assay [43] deals with Mus musculus. Kind of assay: Antagonism of apomorphine for 10-20 minutes in reserpinized mice when a dose of 3.8 micro mol/kg is administered intraperitoneally. The class given is functional.
Assay [44] deals with Mus musculus. Kind of assay: Ability to stimulate dopaminergic systems by effect on locomotor activity in reserpinized mice when a dose of 38 micro mol/kg is administered intraperitoneally. It counts as functional.
Assay [45] has as its system Mus musculus. As to the kind of experiment: Antagonism of apomorphine in reserpinized mice when a dose of 38 micro mol/kg is administered intraperitoneally. It counts as functional.
Assay [46] deals with Mus musculus. As to the kind of experiment: Antagonism of apomorphine for 10-20 minutes in reserpinized mice when a dose of 38 micro mol/kg is administered intraperitoneally. It counts as functional.
Assay [47] deals with Mus musculus. As to the kind of experiment: Antagonism of apomorphine in reserpinized mice when a dose of 3.8 micro mol/kg is administered intraperitoneally (**,p<0.10). The class given is functional.
The test system of assay [48] is Mus musculus. Kind of assay: Ability to stimulate dopaminergic systems by effect on locomotor activity in reserpinized mice when a dose of 3.8 micro mol/kg is administered intraperitoneally. The class given is functional.

Chain of Sodium-dependent dopamine transporter (Rattus norvegicus) (P23977 whole entry): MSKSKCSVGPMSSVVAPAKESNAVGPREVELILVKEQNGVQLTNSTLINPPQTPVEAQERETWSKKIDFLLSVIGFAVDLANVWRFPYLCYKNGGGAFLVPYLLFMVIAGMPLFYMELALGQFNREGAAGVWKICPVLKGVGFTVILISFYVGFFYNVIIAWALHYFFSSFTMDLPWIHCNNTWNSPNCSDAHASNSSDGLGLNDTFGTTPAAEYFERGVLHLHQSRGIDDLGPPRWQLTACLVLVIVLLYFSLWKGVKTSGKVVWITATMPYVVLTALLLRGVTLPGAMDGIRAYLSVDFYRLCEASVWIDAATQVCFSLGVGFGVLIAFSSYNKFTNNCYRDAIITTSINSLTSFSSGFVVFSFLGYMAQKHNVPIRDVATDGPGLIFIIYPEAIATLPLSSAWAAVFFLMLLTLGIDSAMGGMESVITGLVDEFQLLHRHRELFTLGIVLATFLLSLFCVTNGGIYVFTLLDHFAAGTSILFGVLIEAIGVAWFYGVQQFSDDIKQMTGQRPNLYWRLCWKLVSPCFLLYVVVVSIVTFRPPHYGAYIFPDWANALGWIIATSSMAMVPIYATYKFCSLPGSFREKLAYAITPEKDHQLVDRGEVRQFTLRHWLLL
Chain of D(2) dopamine receptor (Rattus norvegicus, UniProt P61169) (P61169 whole entry): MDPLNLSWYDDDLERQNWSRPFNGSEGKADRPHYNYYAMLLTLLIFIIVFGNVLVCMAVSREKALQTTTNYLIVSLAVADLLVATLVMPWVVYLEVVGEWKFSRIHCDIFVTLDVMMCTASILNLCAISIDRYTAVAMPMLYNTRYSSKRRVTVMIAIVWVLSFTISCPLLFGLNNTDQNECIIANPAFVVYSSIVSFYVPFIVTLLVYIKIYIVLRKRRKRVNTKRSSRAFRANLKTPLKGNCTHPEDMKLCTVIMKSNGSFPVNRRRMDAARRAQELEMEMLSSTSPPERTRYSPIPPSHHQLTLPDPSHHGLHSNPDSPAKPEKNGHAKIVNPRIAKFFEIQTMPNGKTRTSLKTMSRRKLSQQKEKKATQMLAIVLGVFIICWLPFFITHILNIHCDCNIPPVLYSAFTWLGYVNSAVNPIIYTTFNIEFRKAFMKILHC
Chain of D(2) dopamine receptor (Homo sapiens, UniProt P14416) (P14416 whole entry): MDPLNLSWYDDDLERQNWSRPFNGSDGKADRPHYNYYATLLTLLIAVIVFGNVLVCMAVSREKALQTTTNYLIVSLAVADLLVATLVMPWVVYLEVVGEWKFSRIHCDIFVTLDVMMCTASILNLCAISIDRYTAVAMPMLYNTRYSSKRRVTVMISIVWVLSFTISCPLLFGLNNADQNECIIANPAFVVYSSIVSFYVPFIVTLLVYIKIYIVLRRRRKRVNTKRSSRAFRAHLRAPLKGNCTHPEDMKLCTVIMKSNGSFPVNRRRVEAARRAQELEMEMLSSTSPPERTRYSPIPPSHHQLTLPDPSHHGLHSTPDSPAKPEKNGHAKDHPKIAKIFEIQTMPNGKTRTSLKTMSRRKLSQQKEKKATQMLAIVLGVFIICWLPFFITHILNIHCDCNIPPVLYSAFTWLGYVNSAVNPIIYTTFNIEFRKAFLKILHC

Take `CCCN1CC[C@@H]2Cc3c(O)cccc3C[C@H]21`: the Ki at D(2) dopamine receptor [1] stood at 0.5 nM; at D(2) dopamine receptor [2], 2 nM. Also, the ED50 in the assay with Mus musculus [3] (Mus musculus, read-out: ED50) was determined as 0.03 µmol/kg; with Mus musculus [4], 0.04 µmol/kg; in the assay with Rattus norvegicus [20] it was 0.0014 µmol/kg. Moreover, the Max temperature decrease with Mus musculus [5] is recorded as 7.5; in the assay with Mus musculus [6], 10.9. For the same molecule, the Control in the assay on Rattus norvegicus [7] was -45%; in the assay filed under Rattus norvegicus [8], -9.5%. Also, the Locomotor activity in the assay on Mus musculus [9] was determined as 48; in the assay on Mus musculus [10], 52; in the assay on Mus musculus [11], 93; in the assay with Mus musculus [12], 62; in the assay on Mus musculus [13], 1014; in the assay with Mus musculus [14], 1625. The Locomotor activity came to 739 in the assay with Mus musculus [15]; 43 in the assay with Mus musculus [16]; 53 in the assay on Mus musculus [17]; 56 with Mus musculus [18]; 47 in the assay with Mus musculus [19].
As to `CCCN(CCC)C1CCc2cccc(O)c2C1` (stereo not drawn) [8-OH-DPAT], the ED50 turned out to be 2.25 µmol/kg in assay [21]; 0.005 µmol/kg in [22]; 1 µmol/kg with Mus musculus [3]; 9.7 µmol/kg in the assay on Mus musculus [4]; 0.03 µmol/kg with Felis catus [39]. The Time in the assay listed under Mus musculus [23] was found to be 1.1 s; in the assay on Mus musculus [24], 1.6 s; with Mus musculus [25], 5 s; in the assay with Mus musculus [26], 4.4 s; in the assay with Mus musculus [27], 20 s; in the assay with Mus musculus [28] it was 310 s. For the same molecule, the figures for the Time in the assay with Mus musculus [29], in the assay on Mus musculus [30] and in the assay with Mus musculus [31] were 351 s, 11 s and 437 s, respectively. In addition, the Max temperature decrease with Mus musculus [5] was 7.2; in the assay with Mus musculus [6] it was 7.5. Besides, the Control in the assay with Rattus norvegicus [32] is recorded as 16%; in the assay on Rattus norvegicus [33], -37%; in the assay on Rattus norvegicus [34], -47%; with Rattus norvegicus [35] it was 3%; with Felis catus [37], 57%; in the assay with Felis catus [38], 2%. Moreover, in the assay filed under Felis catus [36], the BP is on record as 66%.
Regarding `C=CCN1CC[C@@H]2Cc3c(O)cccc3C[C@H]21`, the Ki was 0.3 nM on D(2) dopamine receptor [1] and 3 nM on D(2) dopamine receptor [2]. Moreover, the Locomotor activity with Mus musculus [9] amounted to 60; in the assay with Mus musculus [40] it was 23; in the assay on Mus musculus [41] it was 54; in the assay with Mus musculus [42], 61; in the assay with Mus musculus [43], 29; in the assay with Mus musculus [44], 1549. The Locomotor activity amounted to 1092 in the assay on Mus musculus [15]; 103 in the assay on Mus musculus [45]; 34 with Mus musculus [46]; 141 in the assay on Mus musculus [18]; 147 with Mus musculus [47]; 1297 in the assay with Mus musculus [48]. This molecule also displayed an ED50 with Rattus norvegicus [20] of 0.002 µmol/kg.

One may read the Ki as the dissociation constant of the complex between target and ligand, obtained from inhibition or displacement. The term ED50 denotes the dose that gives a 50% effect, or the effect in half of the subjects.
